# Source: the supplement of paper PMC10307832
# Assays:
# Assay in all cases: relative viability (nuclei count vs DMSO), 5 days (fraction); higher = more cells survive
# [1] = compound: C1=CC=C(C(=C1)C2=CC=C(C=C2)C3=CSC4=C3C(=C(C(=O)N4)C#N)O)O + Nc1ncn([C@H]2C[C@H](O)[C@@H](CO)O2)c(=O)n1 [Decitabine] (partner 2 µM)
# Summary of the method: (§1)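 Dosing by pin tool came one day after lung cancer cell lines were seeded in 1536-well plates, using either one drug or a fixed anchor-drug dose plus five library-drug doses (not always all listed) in √10 steps. After 5 days, nuclei were counted on 4× images. Relative viability is treated-well nuclei count divided by vehicle-well nuclei count, and values are medians of duplicate plates.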
# TGX 221 + Olaparib = compound: CC1=CN2C(=O)C=C(N=C2C(=C1)C(C)NC3=CC=CC=C3)N4CCOCC4 [TGX 221] + O=C(c1cc(Cc2n[nH]c(=O)c3ccccc23)ccc1F)N1CCN(C(=O)C2CC2)CC1 [Olaparib] (partner 8 µM)
# Summary of the method: as §1
# [2] = compound: O=C(CCCCCCNC(=O)c1cnc(N(c2ccccc2)c2ccccc2)nc1)NO [Ricolinostat] + C[C@@H](Oc1cc(-c2cnn(C3CCNCC3)c2)cnc1N)c1c(Cl)ccc(F)c1Cl [Crizotinib] (partner 1 µM)
# Summary of the method: as §1
# [3] = compound: O=C(CCCCCCNC(=O)c1cnc(N(c2ccccc2)c2ccccc2)nc1)NO [Ricolinostat] + C[C@]1(O)C[C@@H](c2nc(-c3ccc4ccc(-c5ccccc5)nc4c3)c3c(N)nccn32)C1 [Linsitinib] (partner 1 µM)
# Summary of the method: as §1
Cell Line,relative viability ([1]; first compound 0.08 µM),relative viability ([1]; first compound 0.253 µM),relative viability ([1]; first compound 0.8 µM),relative viability ([1]; first compound 2.53 µM),relative viability ([1]; first compound 8 µM),relative viability (TGX 221 + Olaparib; first compound 0.253 µM),relative viability (TGX 221 + Olaparib; first compound 0.8 µM),relative viability (TGX 221 + Olaparib; first compound 2.53 µM),relative viability (TGX 221 + Olaparib; first compound 8 µM),relative viability ([2]; first compound 0.08 µM),relative viability ([2]; first compound 0.253 µM),relative viability ([2]; first compound 0.8 µM),relative viability ([2]; first compound 2.53 µM),relative viability ([3]; first compound 0.08 µM),relative viability ([3]; first compound 0.253 µM),relative viability ([3]; first compound 0.8 µM),relative viability ([3]; first compound 2.53 µM),relative viability (TGX 221 + Olaparib; first compound 0.08 µM)
NCI-H1944,0.454,0.44,0.39,0.468,0.465,0.364,0.409,0.371,0.379,1.02,0.95,0.878,0.58,0.976,1.11,1.1,0.895,–
NCI-H1975,0.384,0.4,0.41,0.403,0.426,0.747,0.802,0.679,0.659,1.01,0.954,–,0.884,0.998,0.878,–,0.835,0.757
NCI-H1993,0.633,0.672,0.622,0.62,0.572,1.02,1.08,0.936,0.938,0.798,0.854,0.923,0.964,0.696,0.772,0.665,0.778,0.945
NCI-H2009,0.384,0.47,0.415,0.372,0.36,0.746,0.69,0.639,0.537,1.02,1.04,0.938,0.888,1.08,1.15,1.09,0.952,0.685
NCI-H2023,0.242,0.247,0.197,0.222,0.196,0.411,0.549,0.46,0.405,0.567,0.715,0.605,0.508,0.612,0.614,0.627,0.625,0.539
NCI-H2085,0.543,0.615,0.499,0.528,0.495,0.75,0.684,0.536,0.439,–,0.81,0.819,0.848,–,0.868,0.922,0.865,0.802
NCI-H2087,0.279,0.31,0.284,0.259,0.254,0.66,0.501,0.683,0.598,0.891,0.791,0.709,0.688,0.896,0.986,1.01,0.847,0.646
NCI-H2126,0.646,0.617,0.578,0.622,0.513,0.885,0.886,0.813,0.871,0.862,0.945,1.06,1.01,0.539,0.724,0.7,0.627,0.927
NCI-H2347,0.629,0.605,0.578,0.675,0.566,0.563,0.521,0.528,0.457,0.618,0.675,0.673,0.581,0.832,0.92,0.876,0.906,0.592
NCI-H2405,0.798,–,0.774,0.66,0.725,0.886,0.858,0.801,0.75,0.735,0.804,0.838,0.876,0.515,0.93,1.05,1.1,0.803
NCI-H3122,0.513,0.435,0.362,0.421,0.535,0.625,0.596,0.562,0.643,0.219,0.307,0.326,0.336,1.01,1.02,1.13,1.05,0.596
PC-3 [JPC-3],0.806,0.879,0.844,0.956,0.805,1.02,1.25,1.06,1.07,1.01,0.902,0.963,0.829,0.894,0.925,0.9,0.793,1.12
PC-14,0.222,0.242,0.24,0.225,0.195,0.265,0.262,0.222,0.252,0.882,0.912,0.907,0.761,0.928,0.897,0.907,0.763,0.249
RERF-LC-KJ,0.762,0.756,0.609,0.819,0.681,0.756,0.996,0.844,0.874,0.784,0.754,0.819,0.65,0.952,0.77,0.897,0.824,0.834
SK-LU-1,0.506,0.572,0.593,0.575,0.497,0.47,0.442,0.42,0.432,0.789,0.897,0.809,0.682,1.09,0.96,1.18,0.76,0.453
SK-MES-1,0.382,0.408,0.383,0.404,0.376,0.691,0.744,0.554,0.465,0.912,0.96,1.04,0.969,1.01,1.01,1.12,1.02,0.65
SW 1573,0.447,0.536,0.552,0.468,0.425,0.422,0.511,0.406,0.479,0.761,0.851,0.784,0.733,0.673,0.781,0.781,0.853,0.48
UMC-11,0.668,1.02,0.495,0.477,0.57,0.503,0.346,0.319,0.338,0.544,0.627,0.561,0.218,1.02,0.932,1,0.723,0.379
